According to US8349828B2, “Azatricyclic antibiotic compounds” (Actelion Pharmaceuticals Ltd., priority 2008, dated 2013):
In brackets after ≈: the same amount, converted by molar mass.

Test system: M. catarrhalis A894
Assay: MIC determination by microdilution in cation-adjusted Mueller-Hinton Broth (CLSI M7-A7)
Type: cell-based
Conditions: for MIC: Moraxella catarrhalis, A894, microdilution method
Protocol: Minimal inhibitory concentrations (MICs, in mg/l) were determined in cation-adjusted Mueller-Hinton Broth by a microdilution method following the description given in “Methods for Dilution Antimicrobial Susceptibility Tests for Bacteria that Grow Aerobically”, Approved standard, 7th ed., Clinical and Laboratory Standards Institute (CLSI) Document M7-A7, Wayne, Pa., USA, 2006. All Example compounds were tested against several Gram-positive and Gram-negative bacteria.

SMILES	MIC	MIC M. catarrhalis A894 (microdilution method)
O=C1COc2ccc(N3C[C@@H](CNC[C@@H]4Cc5c(F)ccc6ccc(=O)n4c56)OC3=O)cc2N1 [Example 16, (S)-9-fluoro-2-({[(R)-2-oxo-3-(3-oxo-3,4-dihydro-2H-benzo[1,4]oxazin-6-yl)-oxazolidin-5-ylmethyl]-amino}-methyl)-1,2-dihydro-pyrrolo[3,2,1-ij]quinolin-4-one]	0.125 µg/mL (≈ 0.269 µM)	–
O=C1CSc2ccc(N3C[C@@H](CCNC[C@@H]4Cc5c(F)ccc6ccc(=O)n4c56)OC3=O)cc2N1 [Example 17, (S)-9-fluoro-2-({2-[(R)-2-oxo-3-(3-oxo-3,4-dihydro-2H-benzo[1,4]thiazin-6-yl)-oxazolidin-5-yl]-ethylamino}-methyl)-1,2-dihydro-1.5 pyrrolo[3,2,1-ij]quinolin-4-one]	–	≦0.063 mg/l
O=C1CSc2ccc(N3C[C@@H](CCNC[C@H]4Cc5c(F)ccc6ccc(=O)n4c56)OC3=O)cc2N1 [Example 18, (R)-9-fluoro-2-({2-[(R)-2-oxo-3-(3-oxo-3,4-dihydro-2H-benzo[1,4]thiazin-6-yl)-oxazolidin-5-yl]-ethylamino}-methyl)-1,2-dihydropyrrolo[3,2,1-ij]quinolin-4-one]	≤ 0.063 µg/mL	–
O=C1CSc2ccc(N3C[C@H](CCNC[C@@H]4Cc5c(F)ccc6ccc(=O)n4c56)OC3=O)cc2N1 [Example 19, (S)-9-fluoro-2-({2-[(S)-2-oxo-3-(3-oxo-3,4-dihydro-2H-benzo[1,4]thiazin-6-yl)-oxazolidin-5-yl]-ethylamino}-methyl)-1,2-dihydropyrrolo[3,2,1-ij]quinolin-4-one]	≤ 0.063 µg/mL	–

Now from value to molecule:

MIC	MIC M. catarrhalis A894 (microdilution method)	SMILES
≤ 0.063 µg/mL	–	O=C1CSc2ccc(N3C[C@H](CCNC[C@H]4Cc5c(F)ccc6ccc(=O)n4c56)OC3=O)cc2N1 [Example 20, (R)-9-fluoro-2-({2-[(S)-2-oxo-3-(3-oxo-3,4-dihydro-2H-benzo[1,4]thiazin-6-yl)-oxazolidin-5-yl]-ethylamino}-methyl)-1,2-dihydropyrrolo[3,2,1-ij]quinolin-4-one]
≤ 0.063 µg/mL	–	O=C1CSc2ccc(N3C[C@H](CCNC[C@@H]4Cc5cccc6ncc(=O)n4c56)OC3=O)cc2N1 [Example 29, (S)-5-({2-[(S)-2-oxo-3-(3-oxo-3,4-dihydro-2H-benzo[1,4]thiazin-6-yl)-oxazolidin-5-yl]-ethylamino}-methyl)-5,6-dihydro-pyrrolo[1,2,3-de]quinoxalin-3-one]
0.125 µg/mL (≈ 0.27 µM)	–	O=C1CSc2ccc(N3C[C@@H](CNC[C@@H]4Cc5cccc6ncc(=O)n4c56)OC3=O)cc2N1 [Example 30, (S)-5-({[(R)-2-oxo-3-(3-oxo-3,4-dihydro-2H-benzo[1,4]thiazin-6-yl)oxazolidin-5-ylmethyl]-amino}-methyl)-5,6-dihydro-pyrrolo[1,2,3-de]quinoxalin-3-one]
